Literature values as cited in patent US5607673A, “Purified extract of uvaria brevistipitata and a process for obtaining the purified extract therefor” (C.S.S.A.H.A., Inc., priority 1995, dated 1997).

Tests used:
[1] = system: P-388 mouse lymphocytic leukemia cells; details: Lumonadio et al. 1991
Colon-38 adenocarcinoma = details: Lumonadio et al. 1991
[2] = system: multi-drug resistant K 1 strain of plasmodium falciparum; details: in vitro; Nkunya et al. 1991
[3] = system: NADH-Ubiquinone Reductase (Complex I); details: Degli et al. 1994; for Complex I inhibitory constant and protein dependence of titer vs classical inhibitors: bovine submitochondrial particles
tumor = details: Cole et al. 1976
[4] = system: P-388 lymphocytic leukemia; details: in vitro; Jolad et al. 1982
[5] = U.S. Pat. No. 5,229,419

Molecule: 15-desacetylundulatone
- activity against P-388 cells [1]: active
- activity against Colon-38 adenocarcinoma (Colon-38 adenocarcinoma): active

Molecule: CC(C)=CC(O)C(O)C(C)=CCCC(C)=CCc1c[nH]c2ccccc12 (stereo not shown) [8',9'-dihydroxy-3-farnesylindole]
- anti-malarial activity [2]: most active

Molecule: COc1c(Cc2ccccc2O)c(O)c(Cc2ccccc2O)c(O)c1C(=O)CCc1ccccc1 [Diuveretin]
- anti-malarial activity [2]: most active

Molecule: CCCCCCCCCC[C@H](O)[C@H]1CC[C@@H]([C@@H]2CC[C@H]([C@H](O)CCCCCCCCCC[C@@H](O)CC3=C[C@H](C)OC3=O)O2)O1 [Rolliniastatin-1]
- Complex I inhibitory constant and protein dependence of titer vs classical inhibitors [3]: more powerful

Molecule: CCCCCCCCCC[C@H](O)[C@H]1CC[C@H]([C@H]2CC[C@H]([C@H](O)CCCCCCCCCCC(O)CC3=C[C@H](C)OC3=O)O2)O1 (stereo partly shown) [Rolliniastatin-2]
- Complex I inhibitory constant and protein dependence of titer vs classical inhibitors [3]: more powerful

Molecule: CCCCCC[C@H](O)CCC[C@H](O)[C@H]1CC[C@H]([C@H]2CC[C@H]([C@H](O)CCCCCCCCCCCCC3=C[C@H](C)OC3=O)O2)O1 [Squamocin]
- Complex I inhibitory constant vs the classical inhibitor [3]: lower than that of the classical inhibitor

Molecule: COc1cc(O)c(Cc2ccccc2O)c(O)c1C(=O)CCc1ccccc1 [Uvaratin]
- anti-tumor activity (tumor): shown to have anti-tumor activity

Molecule: COc1cc(O)c(Cc2ccccc2O)c(O)c1C(=O)CCc1ccccc1 [Uvaretin]
- anti-malarial activity [2]: most active

Molecule: CCCCCCCCCC[C@H](OC(C)=O)[C@H]1CC[C@H]([C@H]2CC[C@H]([C@H](O)CCCCCCCCCCCCC3=C[C@H](C)OC3=O)O2)O1 [Uvaricin]
- activity against P-388 lymphocytic leukemia [4]: demonstrated an in vitro activity

Molecule: CCCCCCCCCC[C@H](O)[C@H]1CC[C@H]([C@H]2CC[C@H]([C@H](O)CCCCCCCCCC[C@@H](O)CC3=C[C@H](C)OC3=O)O2)O1 [bullatacin]
- antitumor and pesticidal activity [5]: exhibit antitumor and pesticidal activity

Molecule: CCCCCCCCCC[C@H](O)[C@H]1CC[C@H]([C@H]2CC[C@H]([C@H](O)CCCCCCCCCC[C@@H]3CC(CC(C)=O)C(=O)O3)O2)O1 (stereo partly shown) [bullatacinone]
- antitumor and pesticidal activity [5]: exhibit antitumor and pesticidal activity

Molecule: Otivarin
- Complex I inhibitory constant vs the classical inhibitor [3]: lower than that of the classical inhibitor
